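Exposure lasted 48 hours, with cells grown in 96-well plates and compounds tested at five concentrations. The concentration for 50% growth inhibition is given as GI50.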 Active and inactive are the calls of the source. Rule as the data show it: active = GI50 up to about 1.1 µM and inactive = higher.
What was measured:
Assay in all cases: DTP human tumour cell line panel, 48 h
[1] = tested on: 786-0
[2] = tested on: CAKI-1
[3] = tested on: CCRF-CEM
[4] = tested on: DU-145
[5] = tested on: HCT-15
[6] = tested on: KM12
[7] = tested on: LOX IMVI
[8] = tested on: Malme-3M
[9] = tested on: NCI-H460
[10] = tested on: NCI-H522
[11] = tested on: NCI/ADR-RES
[12] = tested on: OVCAR-8
[13] = tested on: RPMI-8226
[14] = tested on: SF-295
[15] = tested on: SNB-19
[16] = tested on: TK-10
[17] = tested on: UO-31
[18] = tested on: HL-60
[19] = tested on: SNB-75

SMILES | GI50 [1] | GI50 [2] | GI50 [3] | GI50 [4] | GI50 [5] | GI50 [6] | GI50 [7] | GI50 [8] | GI50 [9] | GI50 [10] | GI50 [11] | GI50 [12] | GI50 [13] | GI50 [14] | GI50 [15] | GI50 [16] | GI50 [17] | GI50 [18] | GI50 [19]
COc1ccc2c(c1)C(=O)CCc1cc(OC)c(OC)c(OC)c1-2 | 0.0542 µM (active) | 0.127 µM (active) | 0.0512 µM (active) | 0.0335 µM (active) | 0.0359 µM | 0.0298 µM (active) | 0.0966 µM (active) | 0.0304 µM (active) | 0.0413 µM (active) | < 0.01 µM (active) | 0.0214 µM (active) | 0.0513 µM (active) | 0.0631 µM (active) | 0.0384 µM (active) | 0.051 µM (active) | 15.1 µM (inactive) | 0.0631 µM (active) |  | 
O=C1CCC2(c3ccc(F)cc3)Nc3ncccc3N12 (centres undefined) | > 100 µM (inactive) | > 100 µM (inactive) | > 100 µM (inactive) |  | > 100 µM | > 100 µM (inactive) | > 100 µM (inactive) | > 100 µM (inactive) | > 100 µM (inactive) | > 100 µM (inactive) |  | > 100 µM (inactive) | > 100 µM (inactive) | > 100 µM (inactive) |  | > 100 µM (inactive) | > 100 µM (inactive) | > 100 µM (inactive) | 70.1 µM (inactive)
Cc1cc(=O)cc2sc3c(C)cccc3nc1-2 | 17.6 µM (inactive) | 39.9 µM (inactive) | 15.4 µM (inactive) |  | 48.1 µM | 22.5 µM (inactive) | 17.3 µM (inactive) | 92.7 µM (inactive) | 25.4 µM (inactive) | 25.1 µM (inactive) |  | 27.7 µM (inactive) | 19.9 µM (inactive) | 35 µM (inactive) | > 100 µM (inactive) | 32.7 µM (inactive) | 28.6 µM (inactive) | 18.9 µM (inactive) | 69.5 µM (inactive)
COc1ccc(/C=C2\NC(=S)N(CN3CCCCC3)C2=O)cc1 | 36.6 µM (inactive) |  | 39.5 µM (inactive) | 71 µM (inactive) | 24.6 µM | 73.1 µM (inactive) | 30.5 µM (inactive) | 30.3 µM (inactive) |  | 30.7 µM (inactive) | 26.9 µM (inactive) | 15.4 µM (inactive) | 27.1 µM (inactive) | 69.7 µM (inactive) | 37 µM (inactive) | 83.6 µM (inactive) | 37.1 µM (inactive) |  | 21 µM (inactive)
COc1ccc(/C(Cl)=C(\C=O)c2ccc([N+](=O)[O-])cc2)cc1 | 13.3 µM (inactive) | 11.1 µM (inactive) | 4.1 µM (inactive) |  | 5.25 µM | 2.4 µM (inactive) | 3.49 µM (inactive) | 15.6 µM (inactive) | 18.3 µM (inactive) | 4.36 µM (inactive) |  | 10.9 µM (inactive) | 2.37 µM (inactive) | 13.2 µM (inactive) | 18.5 µM (inactive) | 30.1 µM (inactive) | 18.5 µM (inactive) | 3.08 µM (inactive) | 5.35 µM (inactive)
COC(=O)CCC(=O)Nc1cccc(C(F)(F)F)c1 | > 100 µM (inactive) | > 100 µM (inactive) | > 100 µM (inactive) |  | > 100 µM | > 100 µM (inactive) | > 100 µM (inactive) | > 100 µM (inactive) | > 100 µM (inactive) | > 100 µM (inactive) |  | > 100 µM (inactive) | > 100 µM (inactive) | > 100 µM (inactive) | > 100 µM (inactive) | > 100 µM (inactive) | > 100 µM (inactive) | > 100 µM (inactive) | > 74.1 µM (inactive)
COC12C=C(C)C(CC1)CC2C(=O)O (centres undefined) | > 100 µM (inactive) | > 100 µM (inactive) | > 100 µM (inactive) |  | > 100 µM | > 100 µM (inactive) | > 100 µM (inactive) | > 100 µM (inactive) | > 100 µM (inactive) | > 100 µM (inactive) |  | > 100 µM (inactive) | > 100 µM (inactive) | > 100 µM (inactive) | > 100 µM (inactive) | > 100 µM (inactive) | > 100 µM (inactive) | > 100 µM (inactive) | > 100 µM (inactive)
S=C1SCC2CCCN12 (centres undefined) | > 100 µM (inactive) | > 100 µM (inactive) | > 100 µM (inactive) |  | > 100 µM | > 100 µM (inactive) | > 100 µM (inactive) | > 100 µM (inactive) | > 100 µM (inactive) | > 100 µM (inactive) |  | > 100 µM (inactive) | > 100 µM (inactive) | > 100 µM (inactive) | > 100 µM (inactive) | > 100 µM (inactive) | > 100 µM (inactive) | > 100 µM (inactive) | > 100 µM (inactive)
C=CCSc1ncnc2c1ncn2C1OC(CO)C(O)C1O (centres undefined) | 79.4 µM (inactive) | 17.7 µM (inactive) | > 100 µM (inactive) |  | 7.94 µM | > 100 µM (inactive) | 4.72 µM (inactive) | > 100 µM (inactive) | 38.9 µM (inactive) | 11.9 µM (inactive) |  | 3.85 µM (inactive) | 32.5 µM (inactive) | 87.5 µM (inactive) | > 100 µM (inactive) | 68.7 µM (inactive) | 42.1 µM (inactive) | 36 µM (inactive) | 65.2 µM (inactive)
CC[C@@H](C)[C@@H]1NC(=O)C(C(C)=O)=C1O | 22.4 µM (inactive) | 0.456 µM (active) | 5.19 µM (inactive) |  | 20.2 µM | 15.6 µM (inactive) | 26.1 µM (inactive) | 25.1 µM (inactive) | 15.3 µM (inactive) | 20.1 µM (inactive) |  | 24.9 µM (inactive) | 26.2 µM (inactive) | 26.9 µM (inactive) | 0.297 µM (active) | 40.6 µM (inactive) | 30.4 µM (inactive) | 53.8 µM (inactive) | 25.4 µM (inactive)
C=C1C(=O)OC2C[C@H](C)C3CC(=O)C(C)=C3CC12 (some centres undefined) | 13 µM (inactive) | 5.09 µM (inactive) | 3.44 µM (inactive) |  | 11.2 µM | 16 µM (inactive) | 15 µM (inactive) | 11.8 µM (inactive) | 21.9 µM (inactive) | 1.75 µM (inactive) |  | 16.8 µM (inactive) | 4.45 µM (inactive) | 25.2 µM (inactive) | 32.9 µM (inactive) | 15.8 µM (inactive) | 11.8 µM (inactive) | 2.33 µM (inactive) | 14.6 µM (inactive)
CCCCCC/C=C1\CCC(CN2CCOCC2)C1=O (centres undefined) | 4.23 µM (inactive) | 16.8 µM (inactive) | 3.24 µM (inactive) |  | 8.67 µM | 7.64 µM (inactive) | 10.2 µM (inactive) | 16.3 µM (inactive) | 38.7 µM (inactive) | 7.87 µM (inactive) |  | 16.8 µM (inactive) | 2.24 µM (inactive) | 17.7 µM (inactive) | 18.6 µM (inactive) | 13.4 µM (inactive) | 14.3 µM (inactive) | 2.77 µM (inactive) | 21 µM (inactive)
Cn1cnc([N+](=O)[O-])c1Sc1nc2ccccc2o1 | 14 µM (inactive) | 1.9 µM (inactive) | 3.03 µM (inactive) |  | 2.77 µM | 5.18 µM (inactive) | 10.7 µM (inactive) | 5.41 µM (inactive) | 32.3 µM (inactive) | 1.8 µM (inactive) |  | 2.82 µM (inactive) | 3.45 µM (inactive) | 26.3 µM (inactive) | 17.7 µM (inactive) | 10.5 µM (inactive) | 12.2 µM (inactive) | 1.51 µM (inactive) | 16.6 µM (inactive)

Source: ChEMBL document CHEMBL1201862, “PubChem BioAssay data set” (2004)
